Experimental data reported in US20250319063A1, “METHODS AND COMPOUNDS FOR RESTORING MUTANT P53 FUNCTION” (PMV PHARMACEUTICALS, INC., priority 2022, published 2025).
Read-outs that look alike come from different tables or passages of the source.

Test: Single oral dose plasma pharmacokinetics in fasted and fed healthy subjects (food effect, ethnicity)
Format: in vivo, human
Settings: for AUC % extrap: both fed and fasted conditions
Experimental: Compound 1 pharmacokinetics were analyzed in healthy subjects administered Compound 1 in a fasted state. A subject was considered fasted if the subject fasted overnight for at least 10 hours and water was permitted ad libitum except for 1 hour before and after drug administration. For fasted subjects, Compound 1 was administered with at least 8 ounces (240 mL) of water. Compound 1 pharmacokinetics were also analyzed in healthy subjects administered Compound 1 in a fed state. A subject was considered fed after consuming a high-fat meal 30 minutes prior to drug administration, and the meal was finished at least 5 minutes prior to drug administration. For both fasted and fed subjects, no food was permitted for at least 4 hours post-dose and water was permitted starting at 1 hour post-dose.
Subjects were healthy, non-smoking male and female Caucasian/non-Asian or Japanese participants 18 to 55 years of age with a BMI between […].
In Part 1 of the study, analysis was performed to compare 1000 mg Compound 1 in fed and fasted states. A dose of 1000 mg of Compound 1 consisted of two 500 mg tablets administered as a single oral dose. The analysis of Part 1 was performed at two separate time points in two different schemes (1A and 1B).
In scheme 1A, at period 1, Compound 1 analyzed in healthy subjects administered 1000 mg Compound 1 (n=3) in a fed state. Following a washout period of 7-9 days, these subjects were then administered 1000 mg Compound 1 in a fasted state.
Separately, in scheme 1B, at period 1, Compound 1 was analyzed in healthy subjects administered 1000 mg Compound 1 (n=3) in a fasted state. Following a washout period of 7-9 days, these subjects were then administered 1000 mg Compound 1 in a fed state.
In Part 2 of the study, analysis was performed to compare 2000 mg Compound 1 in fed and fasted states and also to compared ethnicity of Caucasian/non-Asian subjects and Japanese subjects. A dose of 2000 mg of Compound 1 consisted of four 500 mg tablets administered as a single oral dose.
For Caucasian/non-Asian subjects (n=20) the analysis was performed at two separate time points in two different schemes (2A and 2B). During scheme 2A, at period 1, Compound 1 was analyzed in subjects administered 2000 mg Compound 1 (n=10) in a fed state. Following a washout period of 7-9 days, at period 2, these subjects were then administered 2000 mg Compound 1 in a fasted state. Separately in scheme 2B, at period 1, Compound 1 was analyzed in subjects administered 2000 mg Compound 1 (n=10) in a fasted state. Following a washout period of 7-9 days, at period 2, these subjects were then administered 2000 mg Compound 1 in a fed state.
For Japanese subjects (n=6), Compound 1 pharmacokinetics were analyzed in subjects administered 2000 mg Compound 1 in a fasted state.
Blood for the analysis of study drug (Compound 1) and metabolite (M1) were collected.
Various pharmacokinetic (PK) parameters were determined for each subject. (Tables 9-12 and FIGS. 23-28).
Statistical analysis of Compound 1 plasma PK parameters were evaluated for food effects for Part 1 (Table 11) and Part 2 (Table 12). The log-transformed PK parameters were analyzed using an analysis of variance model with treatment (fed/fasted condition) and period as fixed effects and participant as a random effect.

[1] = 2000 mg oral, Fasted, Caucasian/Non-Asian
[2] = 2000 mg oral, Fed, Caucasian/Non-Asian

CNC(=O)c1ccc(NCC#Cc2cc3c(N[C@@H]4CCN(C)C[C@@H]4F)cccc3n2CC(F)(F)F)c(OC)c1 [Compound 1, 4-((3-(4-(((3S,4R)-3-fluoro-1-methylpiperidin-4-yl)amino)-1-(2,2,2-trifluoroethyl)-1H-indol-2-yl)prop-2-yn-1-yl)amino)-3-methoxy-N-methylbenzamide]
Plasma CL/F and Vz/F, fasted vs fed (1000 mg (Part 1)): slightly higher in the fasted condition
Mean plasma concentrations, fed vs fasted (1000 mg and 2000 mg doses): higher for Caucasian/non-Asian participants under the fed condition compared to the fasted condition
AUC0-inf, % Ratio (Fed/Fasted) (1000 mg oral (Part 1)): 120.25%
AUC0-last, % Ratio (Fed/Fasted) (1000 mg oral (Part 1)): 120.21%
Cmax, % Ratio (Fed/Fasted) (1000 mg oral (Part 1)): 121.75%
AUC% extrap, GeoMean (1000 mg oral, Fasted (Part 1)): 1.61%
CL/F, GeoMean (1000 mg oral, Fasted (Part 1)): 6.67 L/h
λz, GeoMean (1000 mg oral, Fasted (Part 1)): 0.0450 h⁻¹
AUC0-last, GeoMean (1000 mg oral, Fed (Part 1)): 177 µg·h/mL
AUC% extrap, GeoMean (1000 mg oral, Fed (Part 1)): 1.61%
CL/F, GeoMean (1000 mg oral, Fed (Part 1)): 5.55 L/h
λz, GeoMean (1000 mg oral, Fed (Part 1)): 0.0438 h⁻¹
increase of peak exposure (Cmax) with food (high-fat meal) vs fasted (1000 mg single dose): approximately 22%
increase of systemic exposure (AUC0-inf and AUC0-last) with food (high-fat meal) vs fasted (1000 mg single dose): approximately 20%
AUC % extrap (1000 mg): less than 5%
AUC0-inf, % Ratio (Fed/Fasted) (2000 mg oral (Part 2)): 178.74%
AUC0-last, % Ratio (Fed/Fasted) (2000 mg oral (Part 2)): 172.94%
Cmax, % Ratio (Fed/Fasted) (2000 mg oral (Part 2)): 183.82%
AUC% extrap, GeoMean [1]: 3.42%
CL/F, GeoMean [1]: 7.71 L/h
λz, GeoMean [1]: 0.0348 h⁻¹
AUC0-last, GeoMean (2000 mg oral, Fasted, Japanese): 326 µg·h/mL
AUC% extrap, GeoMean (2000 mg oral, Fasted, Japanese): 2.13%
CL/F, GeoMean (2000 mg oral, Fasted, Japanese): 5.92 L/h
λz, GeoMean (2000 mg oral, Fasted, Japanese): 0.0398 h⁻¹
AUC0-last, GeoMean [2]: 448 µg·h/mL
AUC% extrap, GeoMean [2]: 4.74%
CL/F, GeoMean [2]: 4.18 L/h
λz, GeoMean [2]: 0.0306 h⁻¹
increase of AUC0-inf with food (high-fat meal) vs fasted (2000 mg single dose): 79%
increase of AUC0-last with food (high-fat meal) vs fasted (2000 mg single dose): 73%
increase of peak exposure (Cmax) with food (high-fat meal) vs fasted (2000 mg single dose): approximately 84%
Plasma CL/F and Vz/F, fasted vs fed (2000 mg, Caucasian/non-Asian (Part 2)): slightly higher in the fasted condition
AUC % extrap (2000 mg, Caucasian/non-Asian): less than 17%
Mean plasma concentrations, Japanese vs Caucasian/non-Asian (2000 mg, fasted): higher in Japanese participants compared to Caucasian/non-Asian participants
Plasma CL/F and Vz/F, Japanese vs Caucasian/non-Asian (2000 mg, fasted): numerically lower for Japanese participants
peak exposure (Cmax) and systemic exposure (AUC), Japanese vs Caucasian/non-Asian (2000 mg, fasted): numerically higher in Japanese participants
maximum exposure (Cmax) and systemic exposure (AUC), fed vs fasted (Caucasian/non-Asian participants): higher under fed conditions (high-fat meal) compared to fasted conditions
AUC(0-t) (both sexes, human, plasma, po, 1000 mg, 1000 mg oral, Fasted (Part 1), read-out: AUC0-24, GeoMean): 97.9 µg·h/mL
AUC(0-t) (both sexes, human, plasma, po, 1000 mg, 1000 mg oral, Fasted (Part 1), read-out: AUC0-96, GeoMean): 148 µg·h/mL
AUC(0-inf) (both sexes, human, plasma, po, 1000 mg, 1000 mg oral, Fasted (Part 1), read-out: AUC0-inf, GeoMean): 150 µg·h/mL
AUC(0-inf) (both sexes, human, plasma, po, 1000 mg, 1000 mg oral, Fasted (Part 1), read-out: AUC0-inf, Geometric Mean (analysis of variance model)): 150 µg·h/mL
AUC(0-t) (both sexes, human, plasma, po, 1000 mg, 1000 mg oral, Fasted (Part 1), read-out: AUC0-last, GeoMean): 147 µg·h/mL
AUC(0-t) (both sexes, human, plasma, po, 1000 mg, 1000 mg oral, Fasted (Part 1), read-out: AUC0-last, Geometric Mean (analysis of variance model)): 147 µg·h/mL
Cmax (both sexes, human, plasma, po, 1000 mg, 1000 mg oral, Fasted (Part 1), read-out: Cmax, GeoMean): 8690 ng/mL
Cmax (both sexes, human, plasma, po, 1000 mg, 1000 mg oral, Fasted (Part 1), read-out: Cmax, Geometric Mean (analysis of variance model)): 8690 ng/mL
Tmax (both sexes, human, plasma, po, 1000 mg, 1000 mg oral, Fasted (Part 1), read-out: Tmax, Median): 2.27 h
Tmax (both sexes, human, plasma, po, 1000 mg, 1000 mg oral, Fasted (Part 1), read-out: Tmax, Minimum, Maximum): 1.54 to 2.51 h
Vd/F (both sexes, human, plasma, po, 1000 mg, 1000 mg oral, Fasted (Part 1), read-out: Vz/F, GeoMean): 148 L
half-life (both sexes, human, plasma, po, 1000 mg, 1000 mg oral, Fasted (Part 1), read-out: t½, GeoMean (converted)): 15.4 h
AUC(0-t) (both sexes, human, plasma, po, 1000 mg, 1000 mg oral, Fed (Part 1), read-out: AUC0-24, GeoMean): 119 µg·h/mL
